Experiment [1] concerns Escherichia coli strain MG1655. Put plainly: Disc diffusion antibiotic sensitivity test. It is filed as cell-based. To be noted: for Estimate of the sterile area beyond the disk: aerobic, 37° C., 24 h incubation, 6 mm disk. The procedure: 1. Introduction: • The antibacterial effect was measured by an agar disk diffusion method. Escherichia coli strain MG1655 was used as a model organism. Whatman's 6 mm disks were used. The incubation of Petri dishes (with disks) was done in aerobic conditions, at 37° C. After 24 h incubation, the radiuses of sterile zones on agar were measured.
2.1 Preparation of bacterial suspension • 100 μl of bacterial suspension (containing 10^4-10^5 bacterial cells per plate) was used for testing. Cells of E. coli MG1655 were grown overnight as a starter on LB (Luria broth) media at 37° C. with a shaker. After 12-18 hhours incubation, 100 μL suspension were added to 9.9 mL of fresh LB media. Bacterial cells designated for testing were grown in fresh LB at 37° C. with a shaker for 2-3 h to final OD (600 nm) 0.2-0.4. This cell suspension was diluted by a factor of 100 using 0.9% NaCl, and 100 μL of the diluted suspension was distributed on agar surface before adding a disk.
2.2 Preparation of Petri dishes • LB agar was prepared according to a standard procedure, autoclaved and stored afterwards up to 3 h at 55° C. The needed substances (like ascorbic acid) were added into agar before pouring into dishes. 15 ml agar was added to each 90 mm Petri dish. Dishes were dried for at least 1 h in a biosafety cabinet by sterile air flow.
2.3 Formulation application • To the preliminary dried dishes (a described in 2.2) a freshly prepared bacterial culture was added (as described in 2.1). Immediately after absorption of the suspension into the agar, a disk was placed at the center of the dish. In case where metallic copper was tested, it was placed first in the form of a small circular wire at the dish center and pressed into the agar, and covered by a disk afterwards. 10 μl of a Cu^2+ solution was placed on the disk.
2.4 Measurement of the sterile zone size • All dishes after 24 h incubation (as described in 2.1) were photographed and the images are analyzed. The absolute size of the sterile zones was estimated in comparison with the disk size (6 mm).
The results were presented as sterile area in mm^2 (FIG. 5 and Table 2) or as radiuses in mm (FIGS. 7-10) of the sterile zones on agar.

The test system of experiment [2] is E. coli. Put plainly: Kinetics of bactericidal effect (time-kill curve), syringes technique. It is filed as cell-based, Escherichia coli. The method, then:
(§1) Syringes technique: Bacteria cells were incubated at room temperature under anaerobic conditions in LB Bruce growth substance syringes. To ensure anaerobic conditions, Argon gas (UHP) was bubbled through a sterile filter into a syringe filled with a growth substance. Cu^1+ was formed in situ, the process was started with de-aerating the aqueous solutions containing a mixture of CuSO4 as the source for Cu^2+ ions, metallic copper and Acetonitrile as a stabilizing ligand, prior to microorganisms insertion, according to the following reaction:
(§2) Reference bacteria were incubated under the same condition in a growth substance containing: Metallic copper (4×2×0.1 cm), Acetonitrile, CuSO4 or AgNO3.
(§3) Bacteria count was measured at time intervals using a series of dilutions, and colonies count on LB Agar was incubated at 37° C.
Because of the chemical similarity of copper and silver as well as their clinical use as antibacterial agents, their antibacterial effect over time was compared. The survival of test bacteria in each syringe was sampled in time intervals of 1, 20, 40 and 85 hours from inoculation. Time-kill curve was constructed by plotting the viable cell count of bacteria (Δ log 10 cfu/ml) over time (FIG. 1).

For another experiment, the system named is E. coli MG 1655. Description: Petri dish technique, LB agar with ascorbic acid and CuSO4 covered by oil. It is filed as cell-based, Escherichia coli. To be noted: for Vitality of E. coli MG 1655: 24 h. The procedure:
As control groups, bacteria were incubated under the same conditions without ascorbic acid, or without CuSO4. In this series of experiments ascorbic acid acted as the reducing agent according to the following reaction: 2Cu^2++ascorbic acid→2Cu^++dehydro ascorbic acid (2) The viability of bacteria was detected by the presence or absence of colonies.
The experiment was repeated using a different reducing agent (ascorbic acid instead of metal copper with acetonitrile) and different technique of growing bacteria on Petri dishes with LB agar. The ascorbic acid embedded in the agar reduces copper as was shown in Equation 2.

For experiment [3], the system named is E. coli. Description: Syringes technique, anaerobic incubation of E. coli with copper ions (vitality / MIC). It is filed as cell-based, Escherichia coli. The method, then: as §1
One must notice that each Cu^2+ results in two Cu^1+ ions.
as §2, §3
The vitality of Escherichia coli, Staphylococcus aureus (bacteria) and Saccharomyces cerevisiae (yeast) was tested in anaerobic conditions using syringe technique and Petri dish technique.
The MIC of Cu^1+ and Cu^2+ was measured by using four syringes with decreasing concentration of the copper ions from 8 to 2 mM.
MIC of Cu^1+ found to be around 4 mM where the MIC of Cu^2+ was between 6 mM and 8 mM.

Another experiment deals with Staphylococcus aureus. Description: Growth kinetics in anaerobic conditions, syringe technique. It is filed as cell-based. The method, then:
as §1, §2, §3
When comparing with FIG. 2 it seems that the difference between the effect of Cu^1+ and Cu^2+ is more pronounced in gram (+) bacteria than in gram(−).

For the next experiment, the system named is S. aureus. Description: Petri dish technique, LB agar with ascorbic acid. It is filed as cell-based, Staphylococcus aureus. To be noted: 24 h. The procedure: Petri dish technique: Bacteria were incubated at 37° C. in Petri dish with LB Agar containing 20 mM ascorbic acid and 0.05-3.5 mM CuSO4 covered by oil, to prevent air oxygen penetration. As control groups, bacteria were incubated under the same conditions without ascorbic acid, or without CuSO4. In this series of experiments ascorbic acid acted as the reducing agent according to the following reaction: 2Cu^2++ascorbic acid→2Cu^++dehydro ascorbic acid (2) The viability of bacteria was detected by the presence or absence of colonies.
The MIC of Cu^1+ is measured by using Petri dishes with LB agar. The ascorbic acid embedded in the agar reduces copper as was shown in Equation 2.

In another experiment the test system is Saccharomyces cerevisiae. Put plainly: Viable cell count over time, syringes technique. It is filed as cell-based.
Where [4] appears, read: 4 mM ion, 24 h incubation, 0.5% (v/v) acetonitrile.

For the molecule `[Ag+]` [Ag^1+, reference compound], the “Estimate of the sterile area beyond the disk” value in experiment [1] is given as 27.1 mm^2. Also, the viable cells result in the experiment with E. coli [2] (after 85 hours) is “no viable cells were found”.

As for `O=C1O[C@H]([C@@H](O)CO)C(O)=C1O` [Ascorbic acid, ascorbic acid, reference compound], in the experiment on E. coli MG 1655 (Ascorbic acid 20 mM, CuSO4 0 mM), the “Vitality of E. coli MG 1655” value was “++ (a fully covered plate, estimated as 2×10^7 cfu/ml)”.

As to `O=S(=O)([O-])[O-].[Cu+2]` [CuSO4], the “Vitality of E. coli MG 1655” value is reported as “++ (a fully covered plate, estimated as 2×10^7 cfu/ml)” in the experiment on E. coli MG 1655 (Ascorbic acid 0 mM, CuSO4 3.0 mM); “−” with E. coli MG 1655 (Ascorbic acid 0 mM, CuSO4 4.0 mM); “++ (a fully covered plate, estimated as 2×10^7 cfu/ml)” in the experiment with E. coli MG 1655 (Ascorbic acid 20 mM, CuSO4 0.01 mM); “−” in the experiment on E. coli MG 1655 (Ascorbic acid 20 mM, CuSO4 0.05 mM).

For the molecule `[Cu+]` [Cu^1+], the “bactericidal effect of reduced copper ions relative to Cu^2+” value in the experiment on E. coli MG 1655 (24 h after incubation) is reported as “eight times higher”. For the same molecule, the “Estimate of the sterile area beyond the disk” value in experiment [1] is on record as 359.3 mm^2; in experiment [1] (listed as Cu^2+), 25.9 mm^2; in experiment [1] (listed as Cu^+2) it was 25.9 mm^2. Further, in experiment [1] (disk diffusion method), the “improvement in the biocidal effect compared with Ag^1+ and Cu^2+” value is “more than 10 times”. Also, the “presence or absence of E. coli colonies” value in the experiment on E. coli [3] (2 mM ion, 24 h incubation, 0.5% (v/v) acetonitrile) is given as “++ (a fully covered plate, estimated as 2×10^7 cfu/ml)”; in the experiment on E. coli [3] (setting [4]) it was “++ (a fully covered plate, estimated as 2×10^7 cfu/ml)”; with E. coli [3] (6 mM ion, 24 h incubation, 0.5% (v/v) acetonitrile), “−”; with E. coli [3] (6 mM ion, 24 h incubation, 0.5% (v/v) acetonitrile, listed as Cu^+2), “+ (partially covered plate but still uncountable, estimated as 1×10^4 cfu/ml)”; in the experiment with E. coli [3] (8 mM ion, 24 h incubation, 0.5% (v/v) acetonitrile) it was “−”. Also, the “number of colonies on the plate” value in the experiment on E. coli [3] (setting [4]) stood at 107 colonies. Besides, in the experiment on E. coli [3] (24 h incubation, 0.5% (v/v) acetonitrile, syringes), the MIC result was “around 4 mM”. The bacteriostatic effect entry in the experiment with Staphylococcus aureus is reported as “very little bacteriostatic effect”. Further, the “incubation time to depletion of bacterial count” value in the experiment on Staphylococcus aureus is listed as not above 1 h. In addition, the S. aureus vitality result in the experiment with S. aureus (0.05 mM with ascorbic acid 20 mM) is “++ (a fully covered plate, estimated as 2×10^7 cfu/ml)”; in the experiment on S. aureus (0.3 mM with ascorbic acid 20 mM), “−”. In the experiment on S. aureus (0.1 mM with ascorbic acid 20 mM), the “S. aureus vitality, number of colonies” value is given as 45. In addition, in the experiment with Saccharomyces cerevisiae, the “susceptibility of the yeast compared with the bacteria studied” value is recorded as “more susceptible”. The “antibacterial potency compared with 8 mM and 16 mM Ag^+” value with E. coli [2] (8 mM, 1 h incubation) is “more potent antibacterial agent”. In addition, the viable bacteria cells entry in the experiment on E. coli [2] (20 hours after inoculation) is recorded as “no viable bacteria cell was found at all”. Also, the “reduction of the initial bacteria inoculums” value in the experiment with E. coli [2] (after 1 h of incubation, anaerobic) turned out to be 7 log cfu/ml. For the same molecule, the “live bacteria remaining in the syringe” value in the experiment on E. coli [2] (after 85 hours) came out at 1 log cfu/ml.

With `CC#N` [acetonitrile], the “minimal effective concentration as stabilizing ligand” value in the experiment with E. coli [3] (preliminary tests, equals 0.5% V/V) amounted to 0.1 M.

Take “copper(II) gluconate [copper (II) gluconate]”: in experiment [1] (in emulsifying base ointment with ascorbyl palmitate and 2% copper powder), the “minimal recommended concentration of copper (II) gluconate” value worked out at 1.25 % w/w.
